According to patent US20150031572A1, “MEANS AND METHODS FOR ASSESSING NEURONAL TOXICITY” (priority 2012, published 2015):
Where a name gives a salt, the structure may show the parent alone. Marks after values point to notes of the source that are not given here.

Experiment: Plasma metabolite profiling (GC-MS, LC-MS, SPE-LC-MS) of rats dosed once daily over 28 days; treatment ratios versus untreated control
Format: in vivo, rat
Conditions: for 5-Oxoproline, plasma metabolite ratio versus control / Alanine, plasma metabolite ratio versus control / Arginine (second line of the table), plasma metabolite ratio versus control / Arginine, plasma metabolite ratio versus control / Citrulline, plasma metabolite ratio versus control / Glutamine, plasma metabolite ratio versus control / Proline, plasma metabolite ratio versus control / Tyrosine, plasma metabolite ratio versus control: high dose; for DAG (C18:1,C18:2), ratio versus control / Serotonin (5-HT), ratio versus control: Table 8b
Method: A group of each 5 male and female rats was dosed once daily with the indicated compounds (see Table 10, below for compounds, applied doses and administration details) over 28 days.
Each dose group in the studies consisted of five rats per sex. Additional groups of each 5 male and female animals served as controls. Before starting the treatment period, animals, which were 62-64 days old when supplied, were acclimatized to the housing and environmental conditions for 7 days. All animals of the animal population were kept under the same constant temperature (20-24±3° C.) and the same constant humidity (30-70%). The animals of the animal population were fed ad libitum. The food to be used was essentially free of chemical or microbial contaminants. Drinking water was also offered ad libitum. Accordingly, the water was free of chemical and microbial contaminants as laid down in the European Drinking Water Directive 98/83/EG. The illumination period was 12 hours light followed by 12 hours darkness (12 hours light, from 6:00 to 18:00, and 12 hours darkness, from 18:00 to 6:00). […] The test substances (compounds) in the Tables 1 to 9 below were dosed and administered as described in the Table 10 above.
In the morning of day 7, 14, and 28, blood was taken from the retro-orbital venous plexus from fasted anaesthetized animals. From each animal, 1 ml of blood was collected with EDTA as anticoagulant. The samples were centrifuged for generation of plasma. All plasma samples were covered with a N2 atmosphere and then stored at −80° C. until analysis.
For mass spectrometry-based metabolite profiling analyses plasma samples were extracted and a polar and a non-polar (lipid) fraction was obtained. For GC-MS analysis, the non-polar fraction was treated with methanol under acidic conditions to yield the fatty acid methyl esters. Both fractions were further derivatised with O-methyl-hydroxyamine hydrochloride and pyridine to convert Oxogroups to O-methyloximes and subsequently with a silylating agent before analysis. In LC-MS analysis, both fractions were reconstituted in appropriate solvent mixtures. HPLC was performed by gradient elution on reversed phase separation columns. Mass spectrometric detection which allows target and high sensitivity MRM (Multiple Reaction Monitoring) profiling in parallel to a full screen analysis was applied as described in WO2003073464.
Steroids and their metabolites were measured by online SPE-LC-MS (Solid phase extraction-LC-MS).
Following comprehensive analytical validation steps, the data for each analyte were normalized against data from pool samples. These samples were run in parallel through the whole process to account for process variability. The significance of treatment group values specific for sex, treatment duration and metabolite was determined by comparing means of the treated groups to the means of the respective untreated control groups using WELCH-test and quantified with treatment ratios versus control and p-values.
The identification of the most important biomarkers per toxicity pattern was done by a ranking of the analytes in the tables below. Therefore the metabolic changes in reference treatments of a given pattern (shown in the table) were compared with changes of the same metabolite in other unrelated treatments. […] The maximum absolute value of the respective TVALUE was taken to indicate the most important metabolite for the pattern.

[1] = plasma, female rats, day 7, high dose, Table 4a
[2] = plasma, female rats, day 7, high dose, Table 4b
[3] = plasma, female rats, day 14, high dose, Table 4a
[4] = plasma, female rats, day 14, high dose, Table 4b
[5] = plasma, female rats, day 28, high dose, Table 4a
[6] = plasma, female rats, day 28, high dose, Table 4b
[7] = plasma, male rats, day 7, high dose, Table 12a
[8] = plasma, male rats, day 14, high dose, Table 12a
[9] = plasma, male rats, day 28, high dose, Table 12a
[10] = plasma, male rats, day 7, high dose, Table 8a
[11] = plasma, male rats, day 7, high dose
[12] = plasma, male rats, day 14, high dose, Table 8a
[13] = plasma, male rats, day 14, high dose
[14] = plasma, male rats, day 28, high dose, Table 8a
[15] = plasma, male rats, day 28, high dose

CN(C)CCCN1c2ccccc2Sc2ccc(Cl)cc21 [Chlorpromazine]
Ceramide (d18:1,C24:1), ratio versus control [1]: 2.34* | Docosapentaenoic acid (C22:cis[7,10,13,16,19]5), ratio versus control [1]: 1.46 | Elaidic acid (C18:trans[9]1), ratio versus control [1]: 1.46 | Myristic acid (C14:0), ratio versus control [1]: 0.91 | Phosphatidylcholine (C16:0,C16:0), ratio versus control [1]: 1.11* | Phosphatidylcholine (C16:1,C18:2), ratio versus control [1]: 1.38* | TAG No 07, ratio versus control [1]: 2.57* | myo-Inositol, lipid fraction, ratio versus control [1]: 1.42 | Creatinine, ratio versus control [2]: 0.97 | Glutamate, ratio versus control [2]: 0.83* | Glycine, ratio versus control [2]: 1.01 | Lactate, ratio versus control [2]: 0.65* | Myristic acid (C14:0), ratio versus control [2]: 0.91 | Uric acid, ratio versus control [2]: 0.62* | Ceramide (d18:1,C24:1), ratio versus control [3]: 1.44* | Docosapentaenoic acid (C22:cis[7,10,13,16,19]5), ratio versus control [3]: 1.17 | Galactose, lipid fraction, ratio versus control [3]: 1 | Myristic acid (C14:0), ratio versus control [3]: 1.04 | Phosphatidylcholine (C16:0,C16:0), ratio versus control [3]: 1.3* | Phosphatidylcholine (C16:1,C18:2), ratio versus control [3]: 1.02 | TAG No 07, ratio versus control [3]: 1.79 | myo-Inositol, lipid fraction, ratio versus control [3]: 1.02 | Creatinine, ratio versus control [4]: 0.86 | Glutamate, ratio versus control [4]: 0.93* | Lactate, ratio versus control [4]: 0.97 | Myristic acid (C14:0), ratio versus control [4]: 1.04 | Uric acid, ratio versus control [4]: 0.84 | Ceramide (d18:1,C24:1), ratio versus control [5]: 1.22 | Docosapentaenoic acid (C22:cis[7,10,13,16,19]5), ratio versus control [5]: 1.18* | Elaidic acid (C18:trans[9]1), ratio versus control [5]: 0.98 | Galactose, lipid fraction, ratio versus control [5]: 0.91 | Myristic acid (C14:0), ratio versus control [5]: 0.89 | Phosphatidylcholine (C16:0,C16:0), ratio versus control [5]: 1.14 | Phosphatidylcholine (C16:1,C18:2), ratio versus control [5]: 1 | TAG No 07, ratio versus control [5]: 2.1* | myo-Inositol, lipid fraction, ratio versus control [5]: 0.96 | Creatinine, ratio versus control [6]: 0.84* | Glutamate, ratio versus control [6]: 1.05 | Glycine, ratio versus control [6]: 1.01 | Lactate, ratio versus control [6]: 0.94 | Myristic acid (C14:0), ratio versus control [6]: 0.89* | Uric acid, ratio versus control [6]: 0.88 | Elaidic acid (C18:trans[9]1), ratio versus control (rat, in vivo): 1.16* | Galactose, lipid fraction, ratio versus control (rat, in vivo): 1.34* | Glycine, ratio versus control (rat, in vivo): 1.06*

CC(=O)[O-].[Tl+] [Thallium(I) acetate]
5-Oxoproline, plasma metabolite ratio versus control (male rats, day 7 (m7)): 0.92 | Alanine, plasma metabolite ratio versus control (male rats, day 7 (m7)): 0.81 | Arginine (second line of the table), plasma metabolite ratio versus control (male rats, day 7 (m7)): 0.90 | Arginine, plasma metabolite ratio versus control (male rats, day 7 (m7)): 0.97 | Citrulline, plasma metabolite ratio versus control (male rats, day 7 (m7)): 0.84 | Glutamine, plasma metabolite ratio versus control (male rats, day 7 (m7)): 0.83 | Proline, plasma metabolite ratio versus control (male rats, day 7 (m7)): 0.85 | Tyrosine, plasma metabolite ratio versus control (male rats, day 7 (m7)): 0.82 | 5-Oxoproline, plasma metabolite ratio versus control (male rats, day 14 (m14)): 0.87 | Alanine, plasma metabolite ratio versus control (male rats, day 14 (m14)): 0.95 | Arginine (second line of the table), plasma metabolite ratio versus control (male rats, day 14 (m14)): 0.80 | Arginine, plasma metabolite ratio versus control (male rats, day 14 (m14)): 0.87 | Citrulline, plasma metabolite ratio versus control (male rats, day 14 (m14)): 0.84 | Glutamine, plasma metabolite ratio versus control (male rats, day 14 (m14)): 0.77 | Proline, plasma metabolite ratio versus control (male rats, day 14 (m14)): 0.80 | Tyrosine, plasma metabolite ratio versus control (male rats, day 14 (m14)): 0.90 | 5-Oxoproline, plasma metabolite ratio versus control (male rats, day 28 (m28)): 0.83 | Alanine, plasma metabolite ratio versus control (male rats, day 28 (m28)): 0.79 | Arginine (second line of the table), plasma metabolite ratio versus control (male rats, day 28 (m28)): 0.85 | Arginine, plasma metabolite ratio versus control (male rats, day 28 (m28)): 0.84 | Citrulline, plasma metabolite ratio versus control (male rats, day 28 (m28)): 0.94 | Glutamine, plasma metabolite ratio versus control (male rats, day 28 (m28)): 0.78 | Proline, plasma metabolite ratio versus control (male rats, day 28 (m28)): 0.85 | Tyrosine, plasma metabolite ratio versus control (male rats, day 28 (m28)): 0.87 | Creatinine, ratio versus control [7]: 1.69 | Creatinine, ratio versus control [8]: 1.50 | Creatinine, ratio versus control [9]: 1.89

CNCCC(Oc1ccc(C(F)(F)F)cc1)c1ccccc1 (centres unmarked) [Fluoxetine hydrochloride]
Ceramide (d18:1,C24:1), ratio versus control [10]: 1.77 | threo-Sphingosine, ratio versus control [10]: 1.2 | DAG (C18:1,C18:2), ratio versus control [11]: 0.65* | Serotonin (5-HT), ratio versus control [11]: 0.33* | 4-Hydroxysphinganine (t18:0, Phytosphingosine), total, ratio versus control [12]: 1.51* | Ceramide (d18:1,C24:1), ratio versus control [12]: 1.91* | DAG (C18:1,C18:2), ratio versus control [13]: 0.64* | Serotonin (5-HT), ratio versus control [13]: 0.07* | 4-Hydroxysphinganine (t18:0, Phytosphingosine), total, ratio versus control [14]: 2.57* | Ceramide (d18:1,C24:1), ratio versus control [14]: 1.85* | threo-Sphingosine, ratio versus control [14]: 2.2* | DAG (C18:1,C18:2), ratio versus control [15]: 0.63* | Serotonin (5-HT), ratio versus control [15]: 0.28* | 4-Hydroxysphinganine (t18:0, Phytosphingosine), total, ratio versus control (rat, in vivo): 1.34* | threo-Sphingosine, ratio versus control (rat, in vivo): 1.45*

CCC1(c2ccccc2)C(=O)NC(=O)NC1=O [Phenobarbital sodium]
3-Indoxylsulfate, ratio versus control (rat, in vivo): 1.81 * | Coenzyme Q9, ratio versus control (rat, in vivo): 1.08 * | Glutamate, ratio versus control (rat, in vivo): 0.78 * | Isoleucine, ratio versus control (rat, in vivo): 1.12 * | Ketoleucine, ratio versus control (rat, in vivo): 0.88 * | Malate, ratio versus control (rat, in vivo): 0.69 * | Pantothenic acid, ratio versus control (rat, in vivo): 1.33 * | Phosphate (inorganic and organic phosphates), ratio versus control (rat, in vivo): 1.17 * | Phosphatidylcholine (C16:0, C20:4), ratio versus control (rat, in vivo): 0.99 * | Phosphatidylcholine (C16:0, C22_6), ratio versus control (rat, in vivo): 0.93 * | Pyruvate, ratio versus control (rat, in vivo): 0.73 * | Valine, ratio versus control (rat, in vivo): 1.15 * | alpha-Tocopherol, ratio versus control (rat, in vivo): 1.14 * | myo-Inositol, ratio versus control (rat, in vivo): 0.94 *

CCCC(C)C1(CC)C(=O)NC(=O)NC1=O (centres unmarked) [Pentobarbital sodium i.p., Pentobarbital sodium]
3-Indoxylsulfate, ratio versus control (rat, in vivo): 1.44 * | Cysteine, ratio versus control (rat, in vivo): 0.64 * | Ketoleucine, ratio versus control (rat, in vivo): 1.09 | Malate, ratio versus control (rat, in vivo): 0.83 * | Pantothenic acid, ratio versus control (rat, in vivo): 1.14^ | Phosphate (inorganic and organic phosphates), ratio versus control (rat, in vivo): 1.21 * | Phosphatidylcholine (C16:0, C20:4), ratio versus control (rat, in vivo): 1 * | Phosphatidylcholine (C16:0, C22_6), ratio versus control (rat, in vivo): 0.94 * | alpha-Tocopherol, ratio versus control (rat, in vivo): 1.23 *

CC1(C)C(C(Cl)Cl)C2(Cl)C(Cl)C(Cl)C1(Cl)C2(Cl)Cl (centres unmarked) [Toxaphene]
5-Oxoproline, plasma metabolite ratio versus control (male rats, day 7 (m7)): 0.98 | Alanine, plasma metabolite ratio versus control (male rats, day 7 (m7)): 0.82 | Arginine (second line of the table), plasma metabolite ratio versus control (male rats, day 7 (m7)): 0.87 | Arginine, plasma metabolite ratio versus control (male rats, day 7 (m7)): 0.96 | Citrulline, plasma metabolite ratio versus control (male rats, day 7 (m7)): 0.87 | Glutamine, plasma metabolite ratio versus control (male rats, day 7 (m7)): 0.89 | Proline, plasma metabolite ratio versus control (male rats, day 7 (m7)): 0.82 | Tyrosine, plasma metabolite ratio versus control (male rats, day 7 (m7)): 0.86 | 5-Oxoproline, plasma metabolite ratio versus control (male rats, day 14 (m14)): 0.87 | Alanine, plasma metabolite ratio versus control (male rats, day 14 (m14)): 0.87 | Arginine (second line of the table), plasma metabolite ratio versus control (male rats, day 14 (m14)): 0.79 | Arginine, plasma metabolite ratio versus control (male rats, day 14 (m14)): 0.78 | Citrulline, plasma metabolite ratio versus control (male rats, day 14 (m14)): 1.07 | Glutamine, plasma metabolite ratio versus control (male rats, day 14 (m14)): 0.77 | Proline, plasma metabolite ratio versus control (male rats, day 14 (m14)): 0.86 | Tyrosine, plasma metabolite ratio versus control (male rats, day 14 (m14)): 0.87 | 5-Oxoproline, plasma metabolite ratio versus control (male rats, day 28 (m28)): 0.81 | Alanine, plasma metabolite ratio versus control (male rats, day 28 (m28)): 0.83 | Arginine (second line of the table), plasma metabolite ratio versus control (male rats, day 28 (m28)): 0.84 | Arginine, plasma metabolite ratio versus control (male rats, day 28 (m28)): 0.77 | Citrulline, plasma metabolite ratio versus control (male rats, day 28 (m28)): 1.10 | Glutamine, plasma metabolite ratio versus control (male rats, day 28 (m28)): 0.81 | Proline, plasma metabolite ratio versus control (male rats, day 28 (m28)): 0.88 | Tyrosine, plasma metabolite ratio versus control (male rats, day 28 (m28)): 0.79 | Creatinine, ratio versus control [7]: 1.41 | Creatinine, ratio versus control [8]: 1.45 | Creatinine, ratio versus control [9]: 1.37
